Residue numbers refer to the chain shown, from its start. Values joined by “and” are separate entries in the source; they are usually repeats but may differ in a detail not shown here. Identical values can stand only once.
Tests used:
[1] = target: T1, HIV-2ROD Protease (wild type) (Human immunodeficiency virus type 2 subtype A, UniProt P04584); test: yeast growth rescue assay, HIV-2ROD Protease expressed in BY4741 yeast; format: cell-based; conditions: for IC50isolate/IC50ROD: ROD (reference); for IC50: ROD Protease; for IC50 / Phenotype (transformed yeast) (% cell growth): 48 h; for Phenotype (transformed yeast) (% cell growth): galactose, wild type ROD Protease
T1 construct: initiator Met (added ATG start codon) (N); expressed in transfected cells; host or cells: Saccharomyces cerevisiae BY4741, pRS316Gal1/10-HIV2PR (galactose-inducible)

[2] = target: HIV-2 Protease MRT-20 (Human immunodeficiency virus type 2, UniProt P04584, cells depend on it, form not given); test: yeast growth rescue assay, Protease from infected individual; format: cell-based; conditions: for IC50isolate/IC50ROD: MRT-20; for IC50 / Phenotype (transformed yeast) (% cell growth): MRT-20 Protease; for IC50: yeast
[3] = target: T2, HIV-2ROD Protease L90M (Human immunodeficiency virus type 2 subtype A, UniProt P04584, L603M); test: cell-based; format: cell-based; conditions: for IC50mutant/IC50ROD: L90M
T2 sequence (P04584 514-612 L603M): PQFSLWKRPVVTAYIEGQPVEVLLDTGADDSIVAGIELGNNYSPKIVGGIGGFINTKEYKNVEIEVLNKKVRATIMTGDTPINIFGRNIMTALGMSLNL

[4] = target: T3, HIV-2ROD Protease L99F (Human immunodeficiency virus type 2 subtype A, UniProt P04584, L612F); test: cell-based; conditions: for IC50mutant/IC50ROD: L99F
T3 construct: contains a Phe codon at position 99 of the HIV-2 Protease, followed by a stop codon; initiator Met (start codon of primer Fwd) (N); expressed in transfected cells; host or cells: Saccharomyces cerevisiae BY4741, pRS316GAL1/10
T3 sequence (P04584 514-612 L612F): T2 sequence (P04584 514-612 L603M) with M90L, L99F

[5] = target: T4, HIV-2ROD Protease (Human immunodeficiency virus type 2 subtype A, UniProt P04584); format: cell-based
T4 construct: initiator Met (added ATG start codon) (N); expressed in transfected cells; host or cells: Saccharomyces cerevisiae BY4741, pRS316Gal1/10-HIV2PR (galactose-inducible)

[6] = tested on: HIV-2ROD wild type; parameters: method as in previously published data; key: resistant (R); sensitive (S); conditions: ref previously published data; cited from earlier work
[7] = tested on: HIV-2 K45R; parameters: method as in PMID 16464891; key: resistant (R); sensitive (S); conditions: cited from earlier work
[8] = tested on: HIV-2 V20A, I54M; parameters: method as in PMID 16464891; key: resistant (R); sensitive (S); conditions: cited from earlier work
[9] = tested on: HIV-2 M76V; parameters: key: resistant (R); sensitive (S); conditions: cited from earlier work
[10] = tested on: Protease from HIV-2ROD; parameters: method as in PMID 16464891, PMID 16327332; conditions: read-out: IC50 already reported in the literature; cited from earlier work
[11] = target: HIV-2 Protease MRT-1 (Human immunodeficiency virus type 2, UniProt P04584, cells depend on it, form not given); test: yeast growth rescue assay, Protease from infected individual; conditions: for IC50 / Phenotype (transformed yeast) (% cell growth): MRT-1 Protease; for IC50: yeast
[12] = target: HIV-2 Protease MRT-7 (Human immunodeficiency virus type 2, UniProt P04584, cells depend on it, form not given); test: as above; conditions: for IC50 / Phenotype (transformed yeast) (% cell growth): MRT-7 Protease; for IC50: yeast
[13] = target: HIV-2 Protease MRT-8 (Human immunodeficiency virus 2, UniProt P04584, L603M, cells depend on it, form not given); test: as above; conditions: for IC50 / Phenotype (transformed yeast) (% cell growth): MRT-8 Protease; for IC50: yeast
[14] = target: HIV-2 Protease MRT-22 (Human immunodeficiency virus type 2, UniProt P04584, cells depend on it, form not given); test: as above; conditions: for IC50isolate/IC50ROD: MRT-22; for IC50 / Phenotype (transformed yeast) (% cell growth): MRT-22 Protease; for IC50: yeast
[15] = target: HIV-2 Protease MRT-25 (Human immunodeficiency virus type 2, UniProt P04584, cells depend on it, form not given); test: as above; conditions: for IC50 / Phenotype (transformed yeast) (% cell growth): MRT-25 Protease; for IC50: yeast
[16] = target: HIV-2 Protease MRT-29 (Human immunodeficiency virus type 2, UniProt P04584, cells depend on it, form not given); test: as above; conditions: for IC50isolate/IC50ROD: MRT-29; for IC50 / Phenotype (transformed yeast) (% cell growth): MRT-29 Protease; for IC50: yeast
HIV-2 Protease MRT-29, sequence (P04584 514-612 limits assumed, change not shown): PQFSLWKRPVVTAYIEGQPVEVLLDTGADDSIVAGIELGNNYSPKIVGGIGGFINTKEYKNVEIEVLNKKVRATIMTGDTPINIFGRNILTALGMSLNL

HIV-2 Protease MRT-22, sequence (P04584 514-612 limits assumed, change not shown): as above
HIV-2 Protease MRT-20, sequence (P04584 514-612 limits assumed, stated change not applied): as the sequence (P04584 514-612 limits assumed, change not shown) above
T1 sequence (P04584 514-612 limits assumed): as the sequence (P04584 514-612 limits assumed, change not shown) above
HIV-2 Protease MRT-1, sequence (P04584 514-612 limits assumed, change not shown): as above
HIV-2 Protease MRT-7, sequence (P04584 514-612 limits assumed, stated change not applied): as the sequence (P04584 514-612 limits assumed, change not shown) above
HIV-2 Protease MRT-25, sequence (P04584 514-612 limits assumed, change not shown): as above
T4 sequence (P04584 514-612 limits assumed): as the sequence (P04584 514-612 limits assumed, change not shown) above

With `CC(C)(C)NC(=O)[C@@H]1C[C@@H]2CCCC[C@@H]2CN1C[C@@H](O)[C@H](Cc1ccccc1)NC(=O)[C@H](CC(N)=O)NC(=O)c1ccc2ccccc2n1` [SQV, Saquinavir] the IC50isolate/IC50ROD [1] was 1.00, the IC50 [1] was 150 ± 7.2 µM and the “Phenotype (transformed yeast) (% cell growth)” value (from here on “Phenotype … (% cell growth)”) ([1]; SQV at 1mM) was 75% and 75.0+/-7.0%. For the same molecule, the IC50isolate/IC50ROD [2] was 0.79, the IC50 [2] was 118 ± 6.3 µM and the “Phenotype … (% cell growth)” value ([2]; SQV at 1mM) was 78.0+/-3.0%. For the same molecule, the IC50 [3] was 554.1 ± 3.9 µM, the IC50mutant/IC50ROD [3] was 3.7 and the IC50 [4] was 147 ± 5.1 µM. For the same molecule, the IC50mutant/IC50ROD [4] was 0.98, the “growth on galactose plates (lethal phenotype)” value ([5]; SQV at 200 μM, 2 days at 30°C) was “the lethal phenotype was no longer observed” and the “Phenotype (virus production)” value [6] was “S”. The “Phenotype (virus production)” value [7] was “R [9]”, the “Phenotype (virus production)” value [8] was “R [9]” and the “Phenotype (virus production)” value [9] was “R [10]”. The IC50 [10] was 0.011 µM, the IC50isolate/IC50ROD ([11]; MRT-1) was 1.34 and the IC50 [11] was 200 ± 5.1 µM. For the same molecule, the “Phenotype … (% cell growth)” value ([11]; SQV at 1mM) was 71.0+/-5%, the IC50isolate/IC50ROD ([12]; MRT-7) was 0.46 and the IC50 [12] was 68.9 ± 6.2 µM. The “Phenotype … (% cell growth)” value ([12]; SQV at 1mM) was 98.0+/-6%, the IC50isolate/IC50ROD ([13]; MRT-8) was 4.2 and 4.23 and the IC50 [13] was 553.9 ± 4.2 µM. The “Phenotype … (% cell growth)” value ([13]; SQV at 1mM, 1000 µM) was 55% and 55.0+/-6.3%, the IC50isolate/IC50ROD [14] was 0.70 and the IC50 [14] was 105 ± 7.1 µM. The “Phenotype … (% cell growth)” value ([14]; SQV at 1mM) was 82.0+/-7.1%, the IC50 [15] was 48.5 ± 4.7 µM and the “Phenotype … (% cell growth)” value ([15]; SQV at 1mM) was 100.0+/-9.4%. For the same molecule, the IC50isolate/IC50ROD [16] was 1.02, the IC50 [16] was 153 ± 3 µM and the “Phenotype … (% cell growth)” value ([16]; SQV at 1mM) was 72.0+/-3.0%.

With `Cc1cccc(C)c1OCC(=O)N[C@@H](Cc1ccccc1)[C@@H](O)C[C@H](Cc1ccccc1)NC(=O)[C@H](C(C)C)N1CCCNC1=O` [LPV, Lopinavir] the “Phenotype … (% cell growth)” value ([1]; LPV at 150 μM) was 91.5% and 91.5+/-1.2%, the IC50isolate/IC50ROD [1] was 1.00 and the IC50 [1] was 16.6 ± 2.5 µM. For the same molecule, the “Phenotype … (% cell growth)” value ([2]; LPV at 150 μM) was 71.5+/-1.2%, the IC50isolate/IC50ROD [2] was 1.40 and the IC50 [2] was 23.2 ± 4.4 µM. The IC50 [3] was 12.5 ± 8.1 µM, the IC50mutant/IC50ROD [3] was 0.75 and the IC50 [4] was 11.1 ± 3.1 µM. For the same molecule, the IC50mutant/IC50ROD [4] was 0.67, the growth in galactose ([5]; 60 μM LPV) was “grew in galactose” and the “Phenotype (virus production)” value [6] was “S”. The “Phenotype (virus production)” value [7] was “R [9]”, the “Phenotype (virus production)” value [8] was “R [9]” and the IC50 [10] was 0.027 µM. The “Phenotype … (% cell growth)” value ([11]; LPV at 150 μM) was 50.0+/-3.0%, the IC50 [11] was 48 ± 3.2 µM and the “Phenotype … (% cell growth)” value ([12]; LPV at 150 μM) was 100.0+/-4.7%. For the same molecule, the IC50 [12] was 10.8 ± 5 µM, the “Phenotype … (% cell growth)” value ([13]; LPV at 150 μM) was 82.0+/-7.5% and the IC50 [13] was 12.5 ± 1.5 µM. For the same molecule, the “Phenotype … (% cell growth)” value ([14]; LPV at 150 μM) was 98.5+/-1.0%, the IC50isolate/IC50ROD [14] was 0.91 and the IC50 [14] was 15.1 ± 4.3 µM. The “Phenotype … (% cell growth)” value ([15]; LPV at 150 μM) was 100.0+/-2.0%, the IC50isolate/IC50ROD ([15]; MRT-25) was 1.20 and the IC50 [15] was 19.9 ± 4.6 µM. For the same molecule, the “Phenotype … (% cell growth)” value ([16]; LPV at 150 μM) was 93.0+/-2.0%, the IC50isolate/IC50ROD [16] was 0.84 and the IC50 [16] was 13.9 ± 5.5 µM.
